Legend:
[1] = cited from earlier work
A1 adenosine receptor = target: T1, A1 adenosine receptor (Mesocricetus auratus, UniProt A0A1U8BVR4); test: Competitive radioligand binding assay, A1 binding affinity, DDT1 cell membranes; design: species or system hamster; details: membranes of DDT cells, tritiated radioligand (3H-CPA) 1.5 nM, 23° C. 90 minutes
T1 construct: A1 adenosine receptor sites on the membranes of DDT cells; endogenous in cells; host or cells: DDT cells (DDT1, hamster vas deferens smooth muscle cell line), membrane preparation
T1 sequence (A0A1U8BVR4 1-326): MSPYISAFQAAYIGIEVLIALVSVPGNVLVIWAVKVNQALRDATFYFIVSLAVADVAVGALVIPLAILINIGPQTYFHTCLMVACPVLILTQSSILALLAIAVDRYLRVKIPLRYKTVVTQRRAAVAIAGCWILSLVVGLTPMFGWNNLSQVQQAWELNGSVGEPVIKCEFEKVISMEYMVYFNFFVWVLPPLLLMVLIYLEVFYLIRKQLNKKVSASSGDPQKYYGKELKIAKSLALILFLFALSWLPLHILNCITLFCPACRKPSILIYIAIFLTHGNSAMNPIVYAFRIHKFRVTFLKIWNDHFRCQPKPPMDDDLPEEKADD
Procedure: DDT cells (hamster vas deferens smooth muscle cell line) were grown as monolayers in petri dishes using Dulbecco's Modified Eagle's Medium (DMEM) containing 2.5 μg mL^−1 amphotericin B, 100 U mL^−1 penicillin G, 0.1 mg mL^−1 streptomycin sulfate and 5% fetal bovine serum in a humidified atmosphere of 95% air and 5% CO2. Cells were subcultured twice weekly by dispersion in Hank's Balanced Salt Solution (HBSS) without the divalent cations and containing 1 mM EDTA. The cells were then seeded in growth medium at a density of 1.2×10^5 cells per plate and experiments were performed 4 days later at approximately one day preconfluence.
Attached cells were washed twice with HBSS (2×10 mL), scraped free of the plate with the aid of a rubber policeman in 5 mL of 50 mM Tris-HCl buffer pH 7.4 at 4° C. and the suspension was homogenized for 10 s. The suspension was then centrifuged at 27,000×g for 10 min. The pellet was resuspended in homogenization buffer by vortexing and centrifuged again as described above. The final pellet was resuspended in 1 vol of 50 mM Tris-HCl buffer pH 7.4 containing 5 mM MgCl2 for A1 adenosine receptor assays. For the [^35S]GTPγS binding assay the final pellet was resuspended in 50 mM Tris-HCl pH 7.4 containing 5 mM MgCl2, 100 mM NaCl and 1 mM dithiothreitol. This membrane suspension was then placed in liquid nitrogen for 10 min and stored at −80° C. Aliquots of the membrane suspension were later thawed and used for assays. The protein content was determined with a Bradford™ Assay Kit using bovine serum albumin as standard.
Briefly, 50-70 ug of membrane protein were incubated in a mixture containing 2U/ml adenosine deaminase and 10 μM GTP-γS in 50 mM Tris-HCl buffer, pH 7.4, with 1 mM EDTA in glass tubes. Stock solutions of the compounds of the invention were serially diluted (10^−10M to 10^−4M) in Tris buffer and added to the incubation mixture. […] After incubation at 23° C. 90 minutes, the reaction was stopped by filtration on a Brandel MR24 cell harvester and washing with ice-cold Tris-EDTA buffer (three times, approximate volume 10 ml/wash) over Whatman GF/B filters (presoaked for 1 h in 0.3% polyethylenimine to reduce non-specific binding). Filters were transferred to scintillation vials and 5 ml of Scintisafe (VWR, Brisbane, Calif.) was added. The amount of radioactivity retained on the filters was determined by liquid scintillation spectrometry.

| Compound | half-life [1] | Ki (A1 adenosine receptor) [nM] |
| --- | --- | --- |
| Nc1ncnc2c1ncn2[C@@H]1O[C@H](CO)[C@@H](O)[C@H]1O [adenosine] | less than 10 sec |  |
| CCNC(=O)[C@H]1O[C@@H](n2cnc3c(N[C@@H]4CCOC4)nc(-n4cc(-c5ccc6ccccc6n5)cn4)nc32)[C@H](O)[C@@H]1O |  | 74 |
| (4S,3R,5R)-2-[6-(bicyclo[2.2.1]hept-2-ylamino)-2-pyrazolylpurin-9-yl]-5-(hydroxymethyl)oxolane-3,4-diol [XXXVI] |  | 0.4 |

Reference: patent US7514417B2 (CV Therapeutics, Inc., priority 2005, dated 2009)
